Data taken from patent publication US7442529B2, “Fluorescent probes for biological studies” (Massachusetts Institute of Technology, priority 2005, dated 2008).
Where a name gives a salt, the structure may show the parent alone. Non-standard residues stand in square brackets, D forms with d. Residues, ends and D or L forms follow the SMILES beside them. Dap(6-DMN) = CN(C)c1ccc2cc3c(cc2c1)C(=O)N(C[C@H](N)C(=O)O)C3=O; pY = N[C@@H](Cc1ccc(OP(=O)(O)O)cc1)C(=O)O

How the values were obtained:
GST-PI3K SH2 = test: Fluorescence titration of peptides with GST-PI3K SH2 (non-target domain); format: binding; conditions: peptide saturated with GST-PI3K SH2, 565 nm (FIG. 1c)
Experimental: (§1) The peptides of Table 1 were incubated with targeted and nontargeted SH2 domains. The binding of peptides Crk-bp, Crk-bp2, Abl-bp, and Abl-bp2 to SH2 target domains can be studied by fluorescence titration as shown in FIGS. 1-4.
(§2) Fluorescence titrations of Crk-bp and Crk-bp2 with targeted GST-Crk SH2 are shown in FIG. 1 (a) and (b), respectively. Fluorescence titrations of Crk-bp and Crk-bp2 with non-targeted GST-Abl SH2 are shown in FIG. 4 (a) and (b), respectively.
Peptide stock solutions of known concentration (determined by UV absorbance at 388 nm, E=7980 M−1 cm−1) were used to prepare 5 μM peptide concentration samples in buffered water (150 μL total volume, 100 mM NaCl, 10 mM sodium phosphate, pH 7.5). 2 μL aliquots of the corresponding stock protein solution (GST-Crk SH2, GST-Abl SH2 or GST-PI3K SH2, concentration determined by Bio-Rad Protein Assay) were consecutively added, and fluorescence emission spectra were recorded 1 minute after each addition (excitation 395 nm, 2 nm excitation and emission slit width). […]
Src and PI3K SH2 domains were expressed and purified as GST fusion following reported procedures. […] Proteins were quantified using the Micro BCA protein Assay Kit (Pierce) relative to a BSA standard. All fusion proteins were analyzed by Coomasie staining and Western analysis with anti-GST antibodies.

GST-Abl SH2 = target: T1, GST-Abl SH2 (Homo sapiens, UniProt P00519); test: Fluorescence titration of peptides with GST-Abl SH2, determination of Kd; format: binding
T1 construct: The SH2 domain was cloned using BamH1 (5′) EcoR1 (3′) sites; made in house; host or cells: E. coli (plasmid received from elsewhere; strain not clearly stated for Abl)
T1 sequence (P00519 127-217 limits assumed): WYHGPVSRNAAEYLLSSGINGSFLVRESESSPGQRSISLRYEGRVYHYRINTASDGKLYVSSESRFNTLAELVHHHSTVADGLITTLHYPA
Experimental: as §1
Fluorescence titrations of Abl-bp with non-targeted GST-PI3K SH2 and […] are shown in FIG. 2 (b) and 4 (c), respectively. The relative fluorescence emission intensities for the Abl-bp peptide and aforementioned SH2 domain titrations are shown in FIG. 2 (c).
Fluorescence titrations Abl-bp2 with non-targeted GST-PI3K SH2 and GST-Crk SH2 are shown in FIGS. 3 (b) and 4 (d), respectively. The relative fluorescence emission intensities for the Abl-bp2 peptide and aforementioned SH2 domain titrations are shown in FIG. 3 (c).
(§3) Peptide stock solutions of known concentration (determined by UV absorbance at 388 nm, E=7980 M−1 cm−1) were used to prepare 5 μM peptide concentration samples in buffered water (150 μL total volume, 100 mM NaCl, 10 mM sodium phosphate, pH 7.5). 2 μL aliquots of the corresponding stock protein solution (GST-Crk SH2, GST-Abl SH2 or GST-PI3K SH2, concentration determined by Bio-Rad Protein Assay) were consecutively added, and fluorescence emission spectra were recorded 1 minute after each addition ([…], 2 nm excitation and emission slit width). The increase in emission intensity at the maximum emission wavelength was plotted against total protein concentration and fitted by least-square analysis assuming a 1 to 1 binding mode to obtain the apparent Kd.
Abl-SH2 was received as a GST fusion in a pGEX-KT vector, amp-resistant, IPTG-inducible. The SH2 domain was cloned using BamH1 (5′) EcoR1 (3′) sites.

GST-Crk SH2 = GST-Crk SH2 (Homo sapiens, UniProt P46108); test: Fluorescence titration of peptides with GST-Crk SH2, determination of Kd; format: binding; set-up: Human Crk SH2 domain was expressed as a GST fusion protein; made in house; host or cells: E. coli NB42
Experimental: as §1, §2, §3
Human Crk SH2 domain was expressed as a GST fusion protein transformed into E. coli NB42 strain. Expression of SH2 domains was carried out following reported conditions. […]

[1] = Photophysical properties: UV absorbance, fluorescence emission and quantum yield in different solvents; format: physicochemical; conditions: for quantum yield (Φ): vs. quinine sulfate standard
Experimental: Quantum yields (Φ) were measured by comparison with a standard, which emits in a similar region to the test sample. From the available standard compounds quinine sulfate in 0.1 M H2SO4 (Φ=0.54) was selected.
UV absorbance at the excitation wavelength (375 nm), and fluorescence emission spectra of a series of solutions of the standard and compound were recorded. Solutions were prepared with different absorbances, ranging from 0 (solvent blank) to 0.1. A series of graphs of integrated fluorescence vs. absorbance were obtained. The data were fitted to a linear equation with gradient (grad), and intercept=0. See FIG. 5 as an example of the plots obtained.
The gradients of graphs in FIG. 5 are proportional to the quantum yield of the different samples. Absolute values were calculated using the standard sample, which has a fixed and known fluorescence quantum yield value, according to the following equation: […]
Where the subscripts std and x denote standard and test respectively. The value Φ is the fluorescence quantum yield, grad is the gradient (grad) from the plot of integrated fluorescence intensity vs. absorbance, and η the refractive index of the solvent.
The UV absorbance spectra (40 μM in methanol) and fluorescence emission spectra of compound (VIII), 6DMN-GlyOMe are shown in FIG. 6 and tabulated in Table 4. The UV spectrum of 6DMN-GlyOMe has an intense absorption band at 378 nm which is not found in unsubstituted 2,3-naphthalimides. The maximum excitation wavelength of 6DMN-GlyOMe is at 375 nm.
Quantum yields (Φ) were measured in the solvents listed in Table 2 by comparison with a standard, which emits in a similar region to 6DMN-GlyOMe. Quinine sulfate in 0.1 M H2SO4 (Φ=0.54) was used as the standard. (Melhuish, W. B. J. Phys. Chem., 1961, 65, 229-235). Solutions were prepared at different concentrations such that the absorbance measurements ranged between 0 and 0.1 at and above the excitation wavelength to avoid non-linear effects.
UV absorbance at the excitation wavelength (375 nm), and fluorescence emission spectra of a series of solutions of the standard and 6DMN-GlyOMe were recorded. A series of graphs of integrated fluorescence vs. absorbance were obtained. The data were fitted to a linear equation with gradient (grad), and intercept=0. The gradient (grad) is proportional to the quantum yield of the sample. Absolute values were calculated using the standard sample, which has a fixed and known fluorescence quantum yield value, according to the equation above.

[2] = Lippert-Mataga plot: Stokes shift vs. orientation polarizability; format: physicochemical; conditions: from Stokes shift in 1,4-dioxane/acetonitrile mixtures
Description: This can be estimated from a Lippert-Mataga plot, which is essentially a plot of the Stokes shift of the fluorescence emission versus the solvent polarity. (Lippert, V. E. Z. Elektrochem. 1957, 61, 962-975; Mataga, N.; Kaifu, Y.; Koizumi, M. Bull. Chem. Soc. Jpn. 1956, 29, 465-470.)
The difference (Δ v) in the maximum absorption ( vA) and emission wavelengths ( vF), known as the Stokes shift and expressed in wavenumbers, is plotted vs. Δf. The term Δf is called the orientation polarizability and can be calculated according to the following equation:
[formula] where ε is the solvent dielectric constant and n is the solvent refraction index.
The term Δf can also be calculated for a mixture of solvents. […] In this case, Δf is obtained for each mixture using ε and n values calculated using the molar fractions (χ) in the equation as follow: ε=(χacetonitrile)(38.8)+(χdiox)(2.218) (3) n=(χacetonitrile)(1.3442)+(χdiox)(1.4224) (4) where χacetonitrile+χdiox=1.
The relationship between Δ v and Δf is expressed by the following equation:
[formula] where c is the velocity of light, h is Plank's constant, μe−μg is the difference between the dipole moments of the excited and the ground states respectively (Δμ), and α0 is the radius of the Onsager cavity around the compound.

[3] = in 0.1 M H2SO4; Melhuish 1961; cited from earlier work

CC[C@H](C)[C@H](NC(=O)[C@H](CC(N)=O)NC(=O)[C@@H]1CCCN1C(=O)[C@H](Cc1c[nH]cn1)NC(=O)[C@H](CC(=O)O)NC(=O)[C@H](Cc1ccc(OP(=O)(O)O)cc1)NC(=O)[C@H](CCC(N)=O)NC(=O)[C@H](CN1C(=O)c2cc3ccc(N(C)C)cc3cc2C1=O)NC(=O)CNC(C)=O)C(N)=O [Crk-bp2, Ac-Gly-Dap(6DMN)-Gln-pTyr-Asp-His-Pro-Asn-Ile-(CONH2) (SEQ ID NO: 5)] (Ac-G[Dap(6-DMN)]Q[pY]DHPNI-NH2)
relative fluorescence emission intensity with non-target SH2 domain compared with targeted GST-Crk SH2 (GST-PI3K SH2): notably less
relative fluorescence emission intensity with non-target SH2 domain compared with targeted GST-Crk SH2 (GST-Abl SH2; peptide saturated with GST-Abl SH2, 565 nm (FIG. 1c)): notably less

CC[C@H](C)[C@H](NC(=O)[C@H](CC(N)=O)NC(=O)[C@@H]1CCCN1C(=O)[C@H](Cc1c[nH]cn1)NC(=O)[C@H](CC(=O)O)NC(=O)[C@H](Cc1ccc(OP(=O)(O)O)cc1)NC(=O)[C@H](CCC(N)=O)NC(=O)[C@H](CN1C(=O)c2cc3ccc(N(C)C)cc3cc2C1=O)NC(=O)[C@H](CCC(=O)O)NC(C)=O)C(N)=O [Crk-bp, Ac-Glu-Dap(6DMN)-Gln-pTyr-Asp-His-Pro-Asn-Ile-(CONH2) (SEQ ID NO: 1)] (Ac-E[Dap(6-DMN)]Q[pY]DHPNI-NH2)
Kd (GST-Crk SH2): 4.8 ± 2 µM
Fluorescence increase (GST-Crk SH2; target Crk SH2, excitation 375 nm, emission 565 nm): 500%^b

COC(=O)CN1C(=O)c2cc3ccc(N(C)C)cc3cc2C1=O [Peptide 6DMN-GlyOMe]
maximum excitation wavelength [1]: 375 nm
intense absorption band of the UV spectrum ([1]; 40 μM in methanol): 378 nm
absorbance maximum ([1]; 1,4-dioxane): 372 nm
emission maximum ([1]; 1,4-dioxane): 498 nm
quantum yield (Φ) ([1]; 1,4-dioxane): 0.220
absorbance maximum ([1]; 2-propanol): 385 nm
emission maximum ([1]; 2-propanol): 589 nm
quantum yield (Φ) ([1]; 2-propanol): 0.018
absorbance maximum ([1]; DMF): 380 nm
emission maximum ([1]; DMF): 545 nm
quantum yield (Φ) ([1]; DMF): 0.155
absorbance maximum ([1]; acetone): 375 nm
emission maximum ([1]; acetone): 532 nm
quantum yield (Φ) ([1]; acetone): 0.148
absorbance maximum ([1]; acetonitrile): 380 nm
emission maximum ([1]; acetonitrile): 549 nm
quantum yield (Φ) ([1]; acetonitrile): 0.135
absorbance maximum ([1]; chloroform): 380 nm
emission maximum ([1]; chloroform): 509 nm
quantum yield (Φ) ([1]; chloroform): 0.225
absorbance maximum ([1]; dichloromethane): 379 nm
emission maximum ([1]; dichloromethane): 517 nm
quantum yield (Φ) ([1]; dichloromethane): 0.210
absorbance maximum ([1]; ethanol): 379 nm
emission maximum ([1]; ethanol): 584 nm
quantum yield (Φ) ([1]; ethanol): 0.027
absorbance maximum ([1]; methanol): 382 nm
emission maximum ([1]; methanol): 589 nm
quantum yield (Φ) ([1]; methanol): 0.012
absorbance maximum ([1]; tetrahydrofuran): 373 nm
emission maximum ([1]; tetrahydrofuran): 510 nm
quantum yield (Φ) ([1]; tetrahydrofuran): 0.147
absorbance maximum ([1]; toluene): 373 nm
emission maximum ([1]; toluene): 491 nm
quantum yield (Φ) ([1]; toluene): 0.208
absorbance maximum ([1]; water): 388 nm
emission maximum ([1]; water): 592 nm
increase in the dipole moment between ground and excited state [2]: 5.5 D

C=C[C@H]1C[N@@]2CC[C@H]1C[C@H]2[C@H](O)c1ccnc2ccc(OC)cc12 [quinine sulfate]
quantum yield (Φ) of the standard [3]: 0.54

Ac-Dap(6DMN)-Gln-pTyr-Glu-Asn-Val-Gln-Ser-(CONH2) (SEQ OD NO: 7) [Abl-bp2]
Kd (GST-Abl SH2; target Abl SH2, 20 μM in PBS buffer, pH 7.5): 12 ± 2 µM

Ac-Gly-Dap(6DMN)-Gln-pTyr-Glu-Asn-Val-Gln-Ser-(CONH2) (SEQ ID NO: 6) (Ac-G[Dap(6DMN)]Q[pY]ENVQS-NH2) [Abl-bp]
quantum yield (Φ) ([1]; water, calculated using peptide Abl-bp): 0.002
Fluorescence increase (GST-Abl SH2; target Abl SH2, excitation 375 nm, emission 599 nm): 400%^c
